{"source": "patent US20160281125A1", "about": "“ANTIMICROBIAL COMPOUND SUSCEPTIBILITY TEST” (priority 2013, published 2016)", "key": {"[1]": {"test_system": "strains previously considered susceptible to meropenem", "experiment": "Selective lysis OD600 test, summary over the strains of Table 1", "format": "cell-based, Enterobacteriaceae", "conditions": "13 of 14 strains of Table 1", "procedure": "An isolated colony from an overnight Tryptocase Soy Agar (TSA) plate of each bacterial strain was suspended in 1 ml Tryptocasc Soy Broth (TSB) in a 5 ml BD polystyrene round bottom tube. TSB cultures were incubated shaking at 37° C. overnight. Ten of the overnight culture was inoculated into lml TSB and incubated shaking at 37° C. for three hours. Two […] aliquots of each log-phase culture were then transferred to two 2 ml Eppendorf microcentrifuge tubes. One tube contained 5000 of Normal Saline (BD); the second tube contained 5000 Normal Saline with meropenem at 10 μg/ml (final concentration of meropenem of 6.67 10 μg/ml). Tubes were inverted and then incubated at 37° C. stagnant for thirty minutes. Then […] of lysis buffer (0.5% SDS in PSB) (final concentration of SDS of 0.125%) was added to each tube and the tubes were vortexed for 5 seconds. Post incubation, all tubes were spun at 10000 G for 5 minutes. Supernatant was decanted and the pellet resuspended in Normal Saline. Tubes were vortexed again. OD600 was measured using Eppendorf uvettes in a spectrophotometer. The delta between the OD600 of the normal saline control and the OD600 for the test sample exposed to meropenem in normal saline was used to determine susceptibility of the bacterial strain to meropenem.\nSpecies abbreviations: sp. […]"}, "[2]": {"test_system": "K. pneumoniae strain BAA1705 KPC+", "experiment": "Selective lysis test, BacUni QuickFISH staining (Example 3)", "format": "cell-based", "conditions": "FIG. 5, meropenem 10 μg/ml, 30 min, SDS lysis", "description": "(§1) An alternative to the spectrophotometer-based measurement of changes in turbidity for measuring cell lysis following treatment with the cell lysis conditions in Examples 1 and 2 is to stain samples using a stain that distinguishes between intact cells and lysed cells. In this example staining with BacUni QuickFISH™ was used to identify intact (i.e., non-lysed) cells. BacUN1 is a universal bacteria PNA probe that binds to an rRNA sequence present in most Gram-positive and Gram-negative bacteria. The PNA probe binds to universal rRNA in intact bacterial cells and the entire cell will appears green with fluorescent microscopy. If the bacterial cell had been lysed then the rRNA target would have been released from the bacterial cell and even of somewhat labeled it would not appear as a fluorescent bacterial cell.\n(§2) An isolated colony from an overnight Tryptocase Soy Agar (TSA) plate of each bacteria was suspended in 1 ml Tryptocase Soy Broth (TSB) in a 5 ml BD polystyrene round bottom tube. TSB cultures were incubated at 37° C. overnight. Ten μl of overnight culture was inoculated into 1 ml TSB and incubated shaking at 37° C. for three hours. Two 250 μl aliquots of each log-phase culture was transferred to two 2 ml Eppendorf microcentrifuge tubes. One tube contained 500 μl of Normal Saline (BD); the second tube contained 500 μl Normal Saline with meropenem at 10 μg/ml. Tubes were inverted and then incubated at 37° C. stagnant for thirty minutes. Then […] (0.5% SDS in PSB) was added to each tube and the tubes were vortexed for 5 seconds. Post incubation, the entire culture was filtered through a 1 uM polycarbonate 18 mm filter. The filter was transferred to a plain glass slide and placed on a 55° C. heat block. Then 2 drops of 100% methanol were added to adhere the filter to the slide. Then 30 μl of BacUni QuickFISH™ hybridization buffer was added to the slide and a 50×22 mm coverslip was applied. The slide was then incubated at 55° C. for 15 minutes. The slide was viewed on fluorescence microscope using 60× oil immersion on Dual TxR/FITC. Images were taken with a 1 second exposure."}, "[3]": {"test_system": "E. coli strain 35218", "experiment": "Selective lysis test, BacUni QuickFISH staining (Example 3)", "format": "cell-based", "conditions": "FIG. 3; E. coli 35218; meropenem 10 μg/ml, 30 min, SDS lysis", "description": "as §1, §2"}, "[4]": {"test_system": "K. pneumoniae strain BAA2146 NDM+", "experiment": "Selective lysis test, BacUni QuickFISH staining (Example 3)", "format": "cell-based", "conditions": "FIG. 5, meropenem 10 μg/ml, 30 min, SDS lysis", "description": "as §1, §2"}, "[5]": {"test_system": "E. coli strain BAA-197 ESβL", "experiment": "Selective lysis test, BacUni QuickFISH staining (Example 3)", "format": "cell-based", "conditions": "FIG. 1; E. coli BAA-197 ESβL; meropenem 10 μg/ml, 30 min, SDS lysis", "description": "as §1, §2"}, "[6]": {"test_system": "K. pneumoniae strain 13882", "experiment": "Selective lysis test, BacUni QuickFISH staining (Example 3)", "format": "cell-based", "conditions": "FIG. 2; K. pneumoniae 13882; meropenem 10 μg/ml, 30 min, SDS lysis", "description": "as §1, §2"}, "[7]": {"test_system": "E. coli strain 25922", "experiment": "Selective lysis test, BacUni QuickFISH staining (Example 3)", "format": "cell-based", "conditions": "FIG. 3; E. coli 25922; meropenem 10 μg/ml, 30 min, SDS lysis", "description": "as §1, §2"}, "[8]": {"test_system": "K. pneumoniae strain 3456", "experiment": "Selective lysis test, BacUni QuickFISH staining (Example 3)", "format": "cell-based", "conditions": "FIG. 1; K. pneumoniae 3456; meropenem 10 μg/ml, 30 min, SDS lysis", "description": "as §1, §2"}, "[9]": {"test_system": "E. coli strain 23858", "experiment": "Selective lysis test, BacUni QuickFISH staining (Example 3)", "format": "cell-based", "conditions": "FIG. 2; E. coli 23858; meropenem 10 μg/ml, 30 min, SDS lysis", "description": "as §1, §2"}, "[10]": {"test_system": "E. coli BAA-197 (ESBL)", "experiment": "Selective lysis test, OD600, meropenem and cefotaxime (Example 2)", "format": "cell-based", "procedure": "In this experiment the following strains were tested: strain K. pneumoniae 13882 (previously considered meropenem sensitive and cefotaxime sensitive); E. coli BAA-197 (ESBL) (which expresses an extended-spectrum (beta)-lactamase enzyme and was previously considered meropenem sensitive and cefotaxime resistant); K. pneumoniae BAA-1705 (KPC) (which expresses a carbapenemase enzyme and was previously considered meropenem resistant and cefotaxime resistant); and K. pneumoniae BAA-2146 (NDM1) (which expresses the metallo-beta-lactamase-1 enzyme and was previously considered meropenem resistant and cefotaxime resistant).\nAn isolated colony from an overnight Tryptocase Soy Agar (TSA) plate of each bacteria was suspended in 1 ml Tryptocase Soy Broth (TSB) in a 5 ml BD polystyrene round bottom tube. TSB cultures were incubated at 37° C. for 1.5 hours shaking. Three 250 μl aliquots of each stationary-phase culture were then transferred to three 2 ml Eppendorf microcentrifuge tubes. One tube contained 500 μl of Normal Saline (BD); the second tube contained 500 μl Normal Saline with meropenem at 10 μg/ml; and the third tube contained 500 μl Normal Saline with cefotaxime (abbreviated […]) at 10 μg/ml. Tubes were inverted then incubated at 37° C. stagnant for thirty minutes. Then […] of lysis buffer (0.5% SDS in PSB) was added to each tube and each tube was vortexed for 5 seconds. Post incubation, all tubes were spun at 10000 G for 5 minutes. Supernatant was decanted and the pellet resuspended in Normal Saline. Tubes were vortexed. OD600 was measured using Eppendorf uvettes in a spectrophotometer. The delta between the control and the meropenem normal saline, or the control and the cefotaxime normal saline was used to determine susceptibility."}}, "data": [{"smiles": "C[C@@H](O)[C@H]1C(=O)N2C(C(=O)O)=C(S[C@@H]3CN[C@H](C(=O)N(C)C)C3)[C@H](C)[C@H]12", "note": "[meropenem]", "values": [{"measurement": "decrease of OD600 turbidity vs negative control", "setting": "[1]", "value": "at least 88%"}, {"measurement": "number of BacUni QuickFISH stained cells, treated vs not treated", "setting": "[2]", "value": "similarity in the number of stained cells"}, {"measurement": "number of BacUni QuickFISH stained cells, treated vs not treated", "setting": "[3]", "value": "significant reduction in the number of stained cells"}, {"measurement": "number of BacUni QuickFISH stained cells, treated vs not treated", "setting": "[4]", "value": "similarity in the number of stained cells"}, {"measurement": "number of BacUni QuickFISH stained cells, treated vs not treated", "setting": "[5]", "value": "significant reduction in the number of stained cells"}, {"measurement": "number of BacUni QuickFISH stained cells, treated vs not treated", "setting": "[6]", "value": "significant reduction in the number of stained cells"}, {"measurement": "number of BacUni QuickFISH stained cells, treated vs not treated", "setting": "[7]", "value": "significant reduction in the number of stained cells"}, {"measurement": "number of BacUni QuickFISH stained cells, treated vs not treated", "setting": "[8]", "value": "significant reduction in the number of stained cells"}, {"measurement": "number of BacUni QuickFISH stained cells, treated vs not treated", "setting": "[9]", "value": "significant reduction in the number of stained cells"}, {"measurement": "assay score (sensitive or resistant)", "setting": "[10]", "value": "sensitive"}, {"measurement": "% diff", "setting": "[10]; OD600 vs control", "value": 87.3, "unit": "%"}, {"measurement": "OD600", "setting": "[10]; antibiotic 10 μg/ml, 30 min, SDS lysis buffer + vortex, 1.5 h culture", "value": 0.046}]}]}
